According to US6191290A, “Taxane derivatives for targeted therapy of cancer” (UAB Research Foundation, priority 2000, dated 2001):

What was measured:
[1] = Solubility in aqueous and organic solvents; format: physicochemical; conditions: unconjugated peptide
Text: Prior to the biological evaluation of this compound, two key issues needed to be addressed: The overall water solubility and the cell surface receptor binding ability of the conjugate.

NCI-H1299 cells = test: Cytotoxicity assay at day 4 against NCI-H1299 cells, conjugate versus underivatized paclitaxel
Method: To evaluate the cytotoxic effects of the paclitaxel conjugate, experiments were designed to compare these effects with the underivatized, unconjugated paclitaxel.
To evaluate the cytotoxic activity of the conjugate relative to the intact, underivatized paclitaxel on the NCI-H1299 cells, 25 nM and 50 nM samples of paclitaxel and 10 nM and 30 nM solutions of the conjugate were incubated with the cells and the survival was assessed on day 4.

[2] = tested on: G18 human astrocytoma cells; conditions: cited from earlier work
[3] = tested on: Burkitts lymphoma xenografts; conditions: nude mice bearing Burkitts lymphoma xenografts; cited from earlier work
[4] = clinical trials; cited from earlier work
[5] = Homo sapiens, NCI-H1299, 96 h, read-out: cytotoxicity (cell destruction)
[6] = Homo sapiens, NCI-H1299, 96 h, read-out: growth inhibition / cell destruction

SMILES | solubility [1] | cytotoxicity at 0.01 µM (NCI-H1299 cells; [5]) [%] | cytotoxicity at 0.025 µM (NCI-H1299 cells; [5]) [%] | inhibition at 0.025 µM (NCI-H1299 cells; [6]) [%] | inhibition at 0.05 µM (NCI-H1299 cells; [6]) [%] | cytotoxicity (cell destruction) (NCI-H1299 cells; human, nci-h1299 cells, 96 h, 0.01 µM) [%] | radiosensitizing effect [2] | radiosensitizing effect [3] | reported side effects [4]
CC(C)C[C@H](NC(=O)[C@H](Cc1cnc[nH]1)NC(=O)CNC(=O)[C@@H](NC(=O)[C@H](C)NC(=O)[C@H](Cc1c[nH]c2ccccc12)NC(=O)[C@@H](N)CCC(N)=O)C(C)C)C(N)=O [BBN[7-13]] | soluble only in DMF and alcohols | – | – | – | – | – | – | – | –
CC(=O)O[C@H]1C(=O)[C@@]2(C)[C@H]([C@H](OC(=O)c3ccccc3)[C@]3(O)C[C@H](OC(=O)[C@H](O)[C@@H](NC(=O)c4ccccc4)c4ccccc4)C(C)=C1C3(C)C)[C@]1(OC(C)=O)CO[C@@H]1C[C@@H]2O [paclitaxel] | – | 0 | 20 | 23 | 51 | 0 | radiosensitizing effect | radiosensitizing effect | neutropenia, mucositis, cardiac and neurological toxicities in addition to hypersensitivity
